Measurements reported in patent publication US5484780A, “Angiotensin II antagonists” (Eli Lilly and Company, priority 1994, dated 1996).

What follows are molecules tested against T1, angiotensin-induced vasoconstriction (rabbit aorta) (Oryctolagus cuniculus, UniProt P34976) (assay: Rabbit Aorta Test System: antagonism of angiotensin II contraction of aortic rings). Conditions: contraction to AII 10^-10 to 10^-7 M, 30 minutes incubation with compound; pA2 = -log KB.
T1 construct: The thoracic aortas were removed and cleaned of excess fat and connective tissue; from tissue; host or cells: thoracic aorta rings of New Zealand white rabbits (animals from Hazelton)
T1 sequence (P34976 1-359): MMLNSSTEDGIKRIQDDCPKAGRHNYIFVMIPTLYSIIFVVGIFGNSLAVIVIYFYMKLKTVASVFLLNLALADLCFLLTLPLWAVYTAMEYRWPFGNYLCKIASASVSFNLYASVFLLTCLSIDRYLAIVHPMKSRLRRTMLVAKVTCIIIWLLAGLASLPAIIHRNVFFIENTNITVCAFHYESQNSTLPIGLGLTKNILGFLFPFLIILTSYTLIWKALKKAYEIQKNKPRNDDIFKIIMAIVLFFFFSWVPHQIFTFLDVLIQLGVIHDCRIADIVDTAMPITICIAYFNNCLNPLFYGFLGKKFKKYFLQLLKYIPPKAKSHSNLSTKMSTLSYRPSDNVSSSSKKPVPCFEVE
Design: species or system New Zealand white rabbits
Protocol: As previously discussed, the compounds of Formula I are potent effective antagonists of angiotensin II. The ability of representative compounds of Formula I to block angiotensin II receptor binding was determined using the adrenal glomerulosa assay. The ability to antagonize angiotensin-induced vasoconstriction was evaluated in the rabbit aorta test system.
New Zealand white rabbits (Hazelton, 2-3 kg) were sacrificed by cervical dislocation. The thoracic aortas were removed and cleaned of excess fat and connective tissue. Rings of tissue (3 mm wide) were mounted in 10 ml tissue baths between 2 L-shaped stainless steel hooks. The lower hook was attached to a stationary rod. The upper hook was attached to a force displacement transducer (Grass model FT.03). The bath chambers were maintained at 37° C., aerated with 95% 02 /5% C02, and contained physiological solution of the following composition (mM): NaCl, 117; glucose, 5.6; NaH2 PO4, 1.0; MgS04, 0.7; KCl, 5.2; CaCl2, 1.8; NaHCO3, 26; and phentolamine HCl, 0.003.
Rings were equilibrated for 1 hour with 2 g of tension. During the equilibration period, the tissues were washed by overflow every 15 minutes. Rings were then exposed to 10^-8 M angiotensin II (AII) and were allowed to contract until a steady state was reached. Tissues were then washed every 15 minutes for 1 hour. This was repeated every hour until the AII response stabilized. A cumulative concentration response curve to AII (10^-10 to 10^-7 M) was then obtained. At the conclusion of the concentration response curve, tissues were washed every 2 minutes until baseline tension was reached, then every 15 minutes for 30 minutes. Compounds were added in a volume of 10 μl DMSO and allowed to incubate for 30 minutes before repeating the concentration response curve to AII. Contractions to AII were expressed as a percent of the maximum contraction obtained in the control curve (the first AII concentration response curve). EC50 's (concentration that contracted the tissues to 1/2 the control maximum) for each curve were calculated using a 4 parameter logistics model (NonLin, SAS Institute). Potency data for each compound tested are expressed as the pA2 (defined as-log KB, where KB =[molar concentration of antagonist]/[(EC50 AII with antagonist/EC50 AII without antagonist)-1]).

Q: Which Kb does the source give for `CCCCCC[C@H](C(=O)N1C[C@@H](Oc2ccc(OCCCC)cc2)C[C@H]1C(=O)O)n1cnc(NC(=O)c2ccccc2S(=O)(=O)O)c1` [Example 50] here?
A: 2 nM

Q: How did the Kb turn out when `CCCCCC[C@H](C(=O)N1C[C@@H](Oc2ccc(OCC(C)C)cc2)C[C@H]1C(=O)O)n1cnc(NC(=O)c2ccccc2S(=O)(=O)O)c1` [Example 51] was run?
A: 12.6 nM

Q: `CCCCCC[C@H](C(=O)N1C[C@@H](Oc2ccc(OC(C)(C)C)cc2)C[C@H]1C(=O)O)n1cnc(NC(=O)c2ccccc2S(=O)(=O)O)c1` [Example 52] was tested. Which Kb did it give?
A: 3.98 nM

Q: With `CCCCCC[C@H](C(=O)N1C[C@@H](Oc2ccc(OC(F)(F)F)cc2)C[C@H]1C(=O)O)n1cnc(NC(=O)c2ccccc2S(=O)(=O)O)c1` [Example 53] as the molecule, how does the Kb read?
A: 10 nM

Q: For `CCCCCC[C@H](C(=O)N1C[C@@H](Oc2ccc(OC3CCCC3)cc2)C[C@H]1C(=O)O)n1cnc(NC(=O)c2ccccc2S(=O)(=O)O)c1` [Example 54], which Kb is on record?
A: 2.51 nM

Q: How did the Kb turn out when `CCCCCC[C@H](C(=O)N1C[C@@H](Oc2ccc(OCC3CC3)cc2)C[C@H]1C(=O)O)n1cnc(NC(=O)c2ccccc2S(=O)(=O)O)c1` [Example 55] was run?
A: 0.398 nM

Q: With `CCCCCC[C@H](C(=O)N1C[C@@H](Oc2ccc(OCC3CCCCC3)cc2)C[C@H]1C(=O)O)n1cnc(NC(=O)c2ccccc2S(=O)(=O)O)c1` [Example 56] as the molecule, how does the Kb read?
A: 31.6 nM

Q: `CCCCCC[C@H](C(=O)N1C[C@@H](Oc2ccc(OCC(=O)O)cc2)C[C@H]1C(=O)O)n1cnc(NC(=O)c2ccccc2S(=O)(=O)O)c1` [Example 57] was tested. Which Kb did it give?
A: 0.316 nM

Q: For `CCCCCC[C@H](C(=O)N1C[C@@H](Oc2ccc(OC(C)(C)C(=O)O)cc2)C[C@H]1C(=O)O)n1cnc(NC(=O)c2ccccc2S(=O)(=O)O)c1` [Example 58], which Kb is on record?
A: 0.794 nM

Q: `CCCCCC[C@H](C(=O)N1C[C@@H](Oc2ccc3c(c2)OCO3)C[C@H]1C(=O)O)n1cnc(NC(=O)c2ccccc2S(=O)(=O)O)c1` [Example 59] was tested. Which Kb did it give?
A: 0.631 nM

Q: For `CCCCCC[C@H](C(=O)N1C[C@@H](Oc2ccc(OC)c(OC)c2)C[C@H]1C(=O)O)n1cnc(NC(=O)c2ccccc2S(=O)(=O)O)c1` [Example 60], which Kb is on record?
A: 15.8 nM

Q: How did the Kb turn out when `CCCCCC[C@H](C(=O)N1C[C@@H](Oc2ccc3ccccc3c2)C[C@H]1C(=O)O)n1cnc(NC(=O)c2ccccc2S(=O)(=O)O)c1` [Example 61] was run?
A: 3.16 nM

Q: For `CCCCCC[C@H](C(=O)N1C[C@@H](Oc2ccc3ccc(OC)cc3c2)C[C@H]1C(=O)O)n1cnc(NC(=O)c2ccccc2S(=O)(=O)O)c1` [Example 62], which Kb is on record?
A: 1 nM

Q: `CCCCCC[C@H](C(=O)N1C[C@@H](Oc2ccc3ccc(C(=O)O)cc3c2)C[C@H]1C(=O)O)n1cnc(NC(=O)c2ccccc2S(=O)(=O)O)c1` [Example 63] was tested. Which Kb did it give?
A: 1.58 nM

Q: With `CCCCCC[C@H](C(=O)N1C[C@@H](Oc2cccc3ccccc23)C[C@H]1C(=O)O)n1cnc(NC(=O)c2ccccc2S(=O)(=O)O)c1` [Example 64] as the molecule, how does the Kb read?
A: 2000 nM

Q: For `CCCCCC[C@H](C(=O)N1C[C@@H](Oc2ccc3oc(C)cc3c2)C[C@H]1C(=O)O)n1cnc(NC(=O)c2ccccc2S(=O)(=O)O)c1` [Example 69], which Kb is on record?
A: 0.501 nM

Q: `CCCCCC[C@H](C(=O)N1C[C@@H](Oc2ccc3oc(C(=O)O)cc3c2)C[C@H]1C(=O)O)n1cnc(NC(=O)c2ccccc2S(=O)(=O)O)c1` [Example 70] was tested. Which Kb did it give?
A: 0.501 nM

Q: For `CCCCCC[C@H](C(=O)N1C[C@@H](Oc2ccc3oc4ccccc4c3c2)C[C@H]1C(=O)O)n1cnc(NC(=O)c2ccccc2S(=O)(=O)O)c1` [Example 71], which Kb is on record?
A: 25.1 nM

Q: Which Kb does the source give for `CCCCCC[C@H](C(=O)N1C[C@@H](Oc2ccc3sccc3c2)C[C@H]1C(=O)O)n1cnc(NC(=O)c2ccccc2S(=O)(=O)O)c1` [Example 72] here?
A: 3.16 nM

Q: `CCCCCC[C@H](C(=O)N1C[C@@H](Oc2cccnc2)C[C@H]1C(=O)O)n1cnc(NC(=O)c2ccccc2S(=O)(=O)O)c1` [Example 73] was tested. Which Kb did it give?
A: 158 nM

Q: For `CCCCCC[C@H](C(=O)N1C[C@@H](Oc2ccon2)C[C@H]1C(=O)O)n1cnc(NC(=O)c2ccccc2S(=O)(=O)O)c1` [Example 74], which Kb is on record?
A: 100 nM

Q: For `CCCCCC[C@H](C(=O)N1C[C@@H](Oc2ccc(OC)cc2)C[C@H]1C(=O)O)n1cnc(NC(=O)c2ccccc2-c2nn[nH]n2)c1` [Example 75], which Kb is on record?
A: 1 nM

Q: How did the Kb turn out when `CCCCCC[C@H](C(=O)N1C[C@@H](Oc2ccc(OC(C)(C)C)cc2)C[C@H]1C(=O)O)n1cnc(NC(=O)c2ccccc2-c2nn[nH]n2)c1` [Example 76] was run?
A: 31.6 nM

Q: For `CCCCCC[C@H](C(=O)N1C[C@@H](Oc2ccc(CC(=O)O)cc2)C[C@H]1C(=O)O)n1cnc(NC(=O)c2ccccc2-c2nn[nH]n2)c1` [Example 77], which Kb is on record?
A: 1.58 nM

Q: Which Kb does the source give for `CCCCCC[C@H](C(=O)N1C[C@@H](Oc2ccc(C(=O)O)cc2)C[C@H]1C(=O)O)n1cnc(NC(=O)c2ccccc2-c2nn[nH]n2)c1` [Example 78] here?
A: 3.16 nM

Q: With `CCCCCC[C@H](C(=O)N1C[C@@H](Oc2ccc(OCC(=O)O)cc2)C[C@H]1C(=O)O)n1cnc(NC(=O)c2ccccc2-c2nn[nH]n2)c1` [Example 79] as the molecule, how does the Kb read?
A: 0.501 nM

Q: How did the Kb turn out when `CCCCCC[C@H](C(=O)N1C[C@@H](Oc2ccc(O)cc2)C[C@H]1C(=O)O)n1cnc(NC(=O)c2cccc(O)c2C(=O)O)c1` [Example 81] was run?
A: 1.58 nM

Q: `CCCCCC[C@H](C(=O)N1C[C@@H](Oc2ccc(OC)cc2)C[C@H]1C(=O)O)n1cnc(NC(=O)c2cccc(O)c2C(=O)O)c1` [Example 82] was tested. Which Kb did it give?
A: 0.316 nM

Q: For `CCCCCC[C@H](C(=O)N1C[C@@H](Oc2ccc(OCC)cc2)C[C@H]1C(=O)O)n1cnc(NC(=O)c2cccc(O)c2C(=O)O)c1` [Example 83], which “Rabbit Aorta (pA2)” value is on record?
A: 8.9

Q: How did the Kb turn out when `CCCCCC[C@H](C(=O)N1C[C@@H](Oc2ccc(OCCCC)cc2)C[C@H]1C(=O)O)n1cnc(NC(=O)c2cccc(O)c2C(=O)O)c1` [Example 84] was run?
A: 10 nM

Q: For `CCCCCC[C@H](C(=O)N1C[C@@H](Oc2ccc(C(=O)O)cc2)C[C@H]1C(=O)O)n1cnc(NC(=O)c2cccc(O)c2C(=O)O)c1` [Example 85], which Kb is on record?
A: 1.26 nM

Q: `CCCCCC[C@H](C(=O)N1C[C@@H](Oc2ccc(CC(=O)O)cc2)C[C@H]1C(=O)O)n1cnc(NC(=O)c2cccc(O)c2C(=O)O)c1` [Example 86] was tested. Which Kb did it give?
A: 0.794 nM

Q: Which Kb does the source give for `CCCCCC[C@H](C(=O)N1C[C@@H](Oc2ccc(C#N)cc2)C[C@H]1C(=O)O)n1cnc(NC(=O)c2cccc(O)c2C(=O)O)c1` [Example 87] here?
A: 31.6 nM

Q: `CCCCCC[C@H](C(=O)N1C[C@@H](Oc2ccc3c(c2)CCC3)C[C@H]1C(=O)O)n1cnc(NC(=O)c2cccc(O)c2C(=O)O)c1` [Example 88] was tested. Which Kb did it give?
A: 6.31 nM

Q: For `CCCCCC[C@H](C(=O)N1C[C@@H](Oc2ccc3ccccc3c2)C[C@H]1C(=O)O)n1cnc(NC(=O)c2cccc(O)c2C(=O)O)c1` [Example 89], which Kb is on record?
A: 31.6 nM

Q: With `CCCCCC[C@H](C(=O)N1C[C@@H](Oc2ccc(OC)c(OC)c2)C[C@H]1C(=O)O)n1cnc(NC(=O)c2cccc(O)c2C(=O)O)c1` [Example 90] as the molecule, how does the Kb read?
A: 20 nM

Q: Which “Rabbit Aorta (pA2)” value does the source give for `CCCCCCC(C(=O)N1C[C@@H](Oc2ccc(CP(=O)(O)O)cc2)C[C@H]1C(=O)O)n1cnc(NC(=O)c2ccccc2S(=O)(=O)O)c1` (some centres unmarked) [Example 91] here?
A: 10.1

Q: Which Kb does the source give for `CCCCCC[C@H](C(=O)N1C[C@@H](Oc2ccc(NS(C)(=O)=O)cc2)C[C@H]1C(=O)O)n1cnc(NC(=O)c2ccccc2S(=O)(=O)O)c1` [Example 92, 1-[1-oxo-2-[4-(2-sulfobenzoyl)amino-1H-imidazol-1-yl]octyl]-4-cis-[(4-N-methanesulfonamido)-phenoxy]-L-proline] here?
A: 0.126 nM

Q: How did the “Rabbit Aorta (pA2)” value turn out when `CCCCCC[C@H](C(=O)N1C[C@@H](Oc2ccc(NS(=O)(=O)C(F)(F)F)cc2)C[C@H]1C(=O)O)n1cnc(NC(=O)c2ccccc2S(=O)(=O)O)c1` [Example 93, (R)-1-[1-oxo-2-[4-(2-sulfobenzoyl)amino-1H-imidazol-1-yl]octyl]-4-(cis)-((4-N-triflouromethanesulfonamido)-phenoxy)-L-proline] was run?
A: 8.9

Q: How did the Kb turn out when `CCCCCC[C@H](C(=O)N1C[C@@H](Oc2ccc(N(C)S(C)(=O)=O)cc2)C[C@H]1C(=O)O)n1cnc(NC(=O)c2ccccc2S(=O)(=O)O)c1` [Example 94, (R)-1-[1-oxo-2-[4-(2-sulfobenzoyl)amino-1H-imidazol-1-yl]octyl]-4-(cis)-[(4-N,N-methyl-methanesulfonamido)-phenoxy]-L-proline] was run?
A: 0.251 nM

Q: `CCCCCC[C@H](C(=O)N1C[C@@H](Oc2ccc(CNS(C)(=O)=O)cc2)C[C@H]1C(=O)O)n1cnc(NC(=O)c2ccccc2S(=O)(=O)O)c1` [Example 95] was tested. Which Kb did it give?
A: 0.158 nM
